From US12370143B2, “Compound or salt thereof and lipid particles” (FUJIFILM Corporation, priority 2018, dated 2025) come the findings set out here.

Data set [1] can be described thus: Particle size of nucleic acid lipid particles (Luc2-siRNA). In kind it is physicochemical. The following applies: compound/DSPC/cholesterol/DMG-PEG2000 50/10/38.5/1.5. A digest of the protocol:
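Lipid particles formed from oil phase (test lipid/DSPC/cholesterol/DMG-PEG2000, 50/10/38.5/1.5 molar, 20 mmol/L total in ethanol) micromixed 1:3 with Luc2-siRNA in pH 4 acetate buffer (19.7 μmol/L); siRNA/lipid 339 mol/mol, PBS-diluted and dialyzed. Size measured on ELS-Z2 dynamic light scattering.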

Data set [2] can be described thus: Encapsulation rate of siRNA in nucleic acid lipid particles (Luc2-siRNA). The data set is classed as physicochemical. The following applies: compound/DSPC/cholesterol/DMG-PEG2000 50/10/38.5/1.5. An outline of the steps: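 Encapsulation rate was calculated as (total − outer-phase siRNA)/total ×100. Total siRNA was quantified spectrophotometrically after lipid-dissolving ethanol precipitation, and unencapsulated siRNA by RiboGreen in TE (ex 485/em 535 nm). The particles were test lipid/DSPC/cholesterol/DMG-PEG2000 at 50/10/38.5/1.5, formed by microfluidic mixing with Luc2-siRNA at pH 4 and dialyzed against PBS.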

For data set [3], the system named is Factor VII (FVII) protein. Description: Measurement of Factor VII (FVII) protein in mouse plasma after FVII-siRNA lipid particles. The following applies: 0.1 mg/kg caudal vein, plasma 24 hours after administration, PBS group = 100%. In kind it is in vivo, C57BL6/J mice. The method, then: (§1) The Factor VII (FVII) protein was measured according to the method described in Nature Biotechnology (2010) 28, 172-176. C57BL6/J mice were randomly grouped (n=3). A dispersion liquid of nucleic acid lipid particles was prepared by the same method as that in <Preparation of nucleic acid lipid particles>, except that FVII-siRNA having the sequence described in Molecular Therapy (2009) 17, p. 878 was used instead of Luc-siRNA. The dispersion liquid was administered to the caudal vein of the mice at a dosage of 0.1 mg/kg. For comparison, PBS at the same volume was administered to the caudal vein of the mice. Twenty four hours after the administration, blood was collected from the caudal vena cava, thereby obtaining plasma. The amount of FVII protein was quantified using the obtained plasma and a Biophen FVII assay kit (Aniara).
The FVII amount in the plasma sample of each individual in the PBS administration group was regarded as 100%, and the ratio of the FVII amount in the plasma sample of each individual to 100% was adopted as a measurement value.

The nature of data set [4]: Particle size of nucleic acid lipid particles (FVII-siRNA). The data set is classed as physicochemical. As for the experimental part: The compounds described in Table 2, L-α-distearoylphosphatidylcholine (trade name: COATSOME® MC-8080; NOF corporation), cholesterol (trade name: Choesterol HP; NIPPON FINE CHEMICAL CO., LTD.), and 1,2-dimyristoyl-rac-glycero-3-(methylpolyoxyethylene 2000) (hereinafter, called DMG-PEG2000) (trade name: SUNBRIGHT® GM-020; NOF corporation) were dissolved in ethanol at a molar ratio of 50/10/38.5/1.5 such that the total lipid concentration became 20 mmol/L, thereby obtaining an oil phase.
An aqueous nucleic acid solution obtained by dissolving 5 mg of Luc2-siRNA having the sequence described in Biomacromolecules (2013) 14, p. 3905 in 1 mL of sterile water was diluted with 10 mmol/L acetate buffer having a pH 4 such that the nucleic acid concentration became 19.7 μmol/L, thereby obtaining a water phase. Then, the water phase and the oil phase were mixed together by a micromixer (see JP5288254B) using a syringe pump such that the volume ratio of water phase:oil phase became 3:1 (final ratio of siRNA/lipid=339 (mol/mol)), and the mixed solution was diluted 2× with PBS, thereby obtaining a dispersion liquid of nucleic acid lipid particles. The dispersion liquid was dialyzed (Slide-A-Lyzer G2, MWCO: 10 kD, Thermo Fisher Scientific) using a phosphate buffered saline such that ethanol was removed, thereby obtaining nucleic acid lipid particles.
The particle size of the nucleic acid lipid particles was measured by the same method as that in <Preparation of lipid particles>.
as §1

Data set [5] in a line: Nucleic acid encapsulation rate of nucleic acid lipid particles (FVII-siRNA). The data set is classed as physicochemical. As for the experimental part:
A 3 mol/L aqueous sodium acetate solution (30 μL) and 9 μL of glycogen were added to 60 μL of the lipid particles retaining nucleic acids, and then 1.5 mL of ethanol was added thereto such that only the nucleic acids were precipitated while the lipid was dissolved. Then, the supernatant was removed by centrifugation. After the precipitates were air-dried for 15 minutes or longer, water was added thereto such that the precipitates were redissolved, and the concentration thereof was measured using Nanodrop NF1000 (Thermo Fisher Scientific), thereby quantifying the total nucleic acid concentration.
The nucleic acid concentration was quantified using a Quant-iT RiboGreen RNA Assay Kit (Thermo Fisher Scientific) according to the protocol. First, a 20×TE buffer included in the above kit was diluted with water, thereby obtaining a 1×TE buffer. TE represents Tris/EDTA (ethylenediaminetetraacetic acid). In order to quantify only the nucleic acid in the outer water phase, the dispersion liquid of lipid particles retaining nucleic acids was diluted 10,000× with the 1×TE buffer.
The 10,000× diluted dispersion liquid of lipid particles (100 μL) was put in a 96-well plate, then 100 μL of a RiboGreen reagent (reagent included in the Quanti-iT Ribogreen RNA Assay Kit described above) diluted 2000× with the 1×TE buffer was added to a sample, and fluorescence (excitation wavelength: 485 nm, fluorescence wavelength: 535 nm) was measured using a plate reader Infinit EF200 (TECAN), thereby quantifying the nucleic acid concentration in the outer water phase.
By using the total nucleic acid concentration obtained through the above steps and the quantified nucleic acid concentration in the outer water phase, the nucleic acid encapsulation rate of the nucleic acid lipid particles was calculated according to the following Equation. Nucleic acid encapsulation rate (%)=(total nucleic acid concentration−nucleic acid concentration in outer water phase)/total nucleic acid concentration×100 The results are shown in Table 2.
as §1

With `CCCCC/C=C\C/C=C\CCCCCCCCC(CCCCCCCC/C=C\C/C=C\CCCCC)OC(=O)OCCCN(C)C` [Comparative Example 8, 3-(Dimethylamino)propyl((6Z,9Z,28Z,31Z)-heptatriaconta-6,9,28,31-tetraen-19-yl)carbonate, reference compound], the “Particle size (nm)” value in data set [1] worked out at 63.1 nm; in data set [4], 63.4 nm. The entries for the “Nucleic acid encapsulation rate” value in data set [2] and in data set [5] were 59% and 78%, respectively. In data set [3], the “Relative amount of FVII protein (%)” value amounted to 58%.

As to `CCCCC/C=C\C/C=C\CCCCCCCCC(CCCCCCCC/C=C\C/C=C\CCCCC)N(C)CCN(C)C` [Comparative Example 9, N1-((6Z,9Z,28Z,31Z)-heptatriaconta-6,9,28,31-tetraen-19-yl)-N1,N2,N2-trimethylethane-1,2-diamine, reference compound], the “Particle size (nm)” value in data set [1] is 58.4 nm; in data set [4] it was 60 nm. Moreover, the “Nucleic acid encapsulation rate” value in data set [2] was found to be 84%; in data set [5] it was 71%. Besides, the “Relative amount of FVII protein (%)” value in data set [3] worked out at 44%.

Take `CCCCC/C=C\C/C=C\CCCCCCCCC(CCCCCCCC/C=C\C/C=C\CCCCC)OC(=O)OCCN(CCCCCC)CCN(C)C` [Example 37, 2-((2-(Dimethylamino)ethyl)(hexyl)amino)ethyl((6Z,9Z,28Z,31Z)-heptatriaconta-6,9,28,31-tetraen-19-yl)carbonate]: the “Particle size (nm)” value is 80.4 nm in data set [1] and 74.5 nm in data set [4]. For the same molecule, the “Nucleic acid encapsulation rate” value in data set [2] is reported as 85%; in data set [5], 100%. Also, the “Relative amount of FVII protein (%)” value in data set [3] came out at 17%.

Take `CCCCC/C=C\C/C=C\CCCCCCCCC(CCCCCCCC/C=C\C/C=C\CCCCC)OC(=O)OCCN(CCCC)CCN(C)C` [Example 38, 2-(Butyl(2-(dimethylamino)ethyl)amino)ethyl((6Z,9Z,28Z,31Z)-heptatriaconta-6,9,28,31-tetraen-19-yl)carbonate]: the “Particle size (nm)” value in data set [1] was found to be 94.2 nm; in data set [4], 67.9 nm. The “Nucleic acid encapsulation rate” value in data set [2] was 87%; in data set [5] it was 100%. Further, in data set [3], the “Relative amount of FVII protein (%)” value was 16%.

For `CCCCC/C=C\C/C=C\CCCCCCCCC(CCCCCCCC/C=C\C/C=C\CCCCC)OC(=O)OCCN(CCN(CC)CC)C(C)C` [Example 42, 2-((2-(Diethylamino)ethyl)(isopropyl)amino)ethyl((6Z,9Z,28Z,31Z)-heptatriaconta-6,9,28,31-tetraen-19-yl)carbonate], the “Particle size (nm)” value in data set [1] is given as 70 nm; in data set [4] it was 68.1 nm. Further, the “Nucleic acid encapsulation rate” value in data set [2] is on record as 78%; in data set [5] it was 70%. In addition, the “Relative amount of FVII protein (%)” value in data set [3] is on record as 9%.

Take `CCCCCCC(CCCCCC)C(=O)OCCCCCCC(CCCCCCOC(=O)C(CCCCCC)CCCCCC)OC(=O)OCCN(CC)CCN(CC)CC` [Example 77, 7-(((2-((2-(Diethylamino)ethyl)(ethyl)amino)ethoxy)carbonyl)oxy)tridecane-1,13-diylbis(2-hexyloctanoate)]: the “Particle size (nm)” value in data set [1] was 81.9 nm; in data set [4], 81.2 nm. The “Nucleic acid encapsulation rate” value in data set [2] is 88%; in data set [5], 76%. Moreover, the “Relative amount of FVII protein (%)” value in data set [3] came out at 3%.

With `CCCCCCCCC(CCCCCC)COC(=O)CCCC(CCCCCC)OC(=O)OCCN(CCN(CC)CC)C(C)C` (stereo not drawn) [Example 83, 2-Hexyldecyl 3-ethyl-12-hexyl-6-isopropyl-10-oxo-9,11-dioxa-3,6-diazahexadecan-16-oate], the “Particle size (nm)” value in data set [1] is given as 83.6 nm; in data set [4], 85.4 nm. Further, the “Nucleic acid encapsulation rate” value in data set [2] came out at 82%; in data set [5], 88%. In data set [3], the “Relative amount of FVII protein (%)” value is 13%.

Regarding `CCCCCCCCCCCC(=O)OCCN(CCOC(=O)OC(CCCCCC)CCCCCCCCC(=O)OCC(CCCC)CCCCCC)CCN(CC)CC` (stereo not drawn) [Example 86, 2-butyloctyl 6-(2-(dodecanoyloxy)ethyl)-3-ethyl-12-hexyl-10-oxo-9,11-dioxa-3,6-diazahenicosan-21-oate], the “Particle size (nm)” value in data set [1] is reported as 67.1 nm; in data set [4], 69.2 nm. The “Nucleic acid encapsulation rate” value in data set [2] came to 74%; in data set [5], 88%. The “Relative amount of FVII protein (%)” value in data set [3] turned out to be 15%.

As for `CCCCCCCCC(CCCCCC)COC(=O)CCCCCCCCC(CCCCCC)OC(=O)OCCN(CCN(CC)CC)C(C)C` (stereo not drawn) [Example 89, 2-Hexyldecyl 3-ethyl-12-hexyl-6-isopropyl-10-oxo-9,11-dioxa-3,6-diazahenicosan-21-oate], the “Particle size (nm)” value in data set [1] was 68.2 nm; in data set [4], 77.3 nm. Further, the “Nucleic acid encapsulation rate” value in data set [2] was 83%; in data set [5] it was 94%. Besides, the “Relative amount of FVII protein (%)” value in data set [3] is recorded as 8%.

As for `CCCCCCCC/C=C\CCCCCCCC(=O)OCCN(CCOC(=O)OC(CCCCCC)CCCCCCCCC(=O)OCC(CCCC)CCCCCC)CCN(CC)CC` (stereo not drawn) [Example 91, 2-Butyloctyl 3-ethyl-12-hexyl-6-(2-(oleoyloxy)ethyl)-10-oxo-9,11-dioxa-3,6-diazahenicosan-21-oate], the “Particle size (nm)” value in data set [1] was determined as 75.0 nm; in data set [4] it was 66.5 nm. The “Nucleic acid encapsulation rate” value in data set [2] was 69%; in data set [5], 76%. Besides, the “Relative amount of FVII protein (%)” value in data set [3] is reported as 9%.

As for `CCCCCCCCCC(=O)OCCN(CCOC(=O)OC(CCCCCC)CCCCCCCCC(=O)OCC(CCCCCC)CCCCCCCC)CCN(CC)CC` (stereo not drawn) [Example 98, 2-Hexyldecyl 6-(2-(decanoyloxy)ethyl)-3-ethyl-12-hexyl-10-oxo-9,11-dioxa-3,6-diazahenicosan-21-oate], the “Particle size (nm)” value in data set [1] is 74.9 nm; in data set [4] it was 68.3 nm. For the same molecule, the “Nucleic acid encapsulation rate” value was determined as 82% in data set [2] and 76% in data set [5]. For the same molecule, the “Relative amount of FVII protein (%)” value in data set [3] is recorded as 2%.

For `CCCCCCCCC(CCCCCC)COC(=O)CCCCCCCCC(CCCCCC)OC(=O)OCCN(CCOC(=O)CCCCCCC)CCN(CC)CC` (stereo not drawn) [Example 99, 2-Hexyldecyl 3-ethyl-12-hexyl-6-(2-(octanoyloxy)ethyl)-10-oxo-9,11-dioxa-3,6-diazahenicosan-21-oate], the “Particle size (nm)” value in data set [1] is reported as 68.9 nm; in data set [4] it was 72.3 nm. Also, the “Nucleic acid encapsulation rate” value in data set [2] was 81%; in data set [5], 79%. Besides, the “Relative amount of FVII protein (%)” value in data set [3] turned out to be 3%.
